These results are taken from patent publication US20250197375A1, “PYRIMIDINES AND METHODS OF THEIR USE” (Kineta, Inc., priority 2021, published 2025).

The target in the experiment is PIKfyve (Homo sapiens (Human), UniProt Q9Y2I7). Put plainly: PIKfyve EEA1 Assay (endosomal vesicle enlargement, high content imaging in U2OS cells). It is filed as cell-based. The note with it: 3 hours of treatment, activity relative to maximal APY0201 activity. The method, then: PIKfyve EEA1 Assay. Genetic or pharmacological disruption of PIKfyve activity results in enlargement of endosomal vesicles. This enlargement was utilized as a surrogate readout of PIKFyve inhibition for routine triage of PIKfyve inhibitors. U2OS cells grown in 96-well assay plates were treated with compound diluted in DMEM media containing 10% fetal bovine serum. After 3 hours of treatment, cells were fixed with paraformaldehyde, permeabilized with 0.2% Triton-X in phosphate buffered saline and stained against EEA1. During the secondary antibody staining, cells were also stained with CellMask™ Deep Red and Hoechst to detect cytoplasms and nuclei respectively. Endosomal structures were visualized using a high content imager at 40× magnification. Images were analyzed using a linear classifier algorithm integrating EEA1 spot size, intensity and texture trained on images of cells treated with the potent reference compound APY0201. Compound activity was calculated by subtracting the DMSO signal and calculating percentage activity relative to maximal APY0201 activity. IC50 values were then calculated from concentration versus percent inhibition data by logistic regression.
Chain of PIKfyve (Q9Y2I7 whole entry): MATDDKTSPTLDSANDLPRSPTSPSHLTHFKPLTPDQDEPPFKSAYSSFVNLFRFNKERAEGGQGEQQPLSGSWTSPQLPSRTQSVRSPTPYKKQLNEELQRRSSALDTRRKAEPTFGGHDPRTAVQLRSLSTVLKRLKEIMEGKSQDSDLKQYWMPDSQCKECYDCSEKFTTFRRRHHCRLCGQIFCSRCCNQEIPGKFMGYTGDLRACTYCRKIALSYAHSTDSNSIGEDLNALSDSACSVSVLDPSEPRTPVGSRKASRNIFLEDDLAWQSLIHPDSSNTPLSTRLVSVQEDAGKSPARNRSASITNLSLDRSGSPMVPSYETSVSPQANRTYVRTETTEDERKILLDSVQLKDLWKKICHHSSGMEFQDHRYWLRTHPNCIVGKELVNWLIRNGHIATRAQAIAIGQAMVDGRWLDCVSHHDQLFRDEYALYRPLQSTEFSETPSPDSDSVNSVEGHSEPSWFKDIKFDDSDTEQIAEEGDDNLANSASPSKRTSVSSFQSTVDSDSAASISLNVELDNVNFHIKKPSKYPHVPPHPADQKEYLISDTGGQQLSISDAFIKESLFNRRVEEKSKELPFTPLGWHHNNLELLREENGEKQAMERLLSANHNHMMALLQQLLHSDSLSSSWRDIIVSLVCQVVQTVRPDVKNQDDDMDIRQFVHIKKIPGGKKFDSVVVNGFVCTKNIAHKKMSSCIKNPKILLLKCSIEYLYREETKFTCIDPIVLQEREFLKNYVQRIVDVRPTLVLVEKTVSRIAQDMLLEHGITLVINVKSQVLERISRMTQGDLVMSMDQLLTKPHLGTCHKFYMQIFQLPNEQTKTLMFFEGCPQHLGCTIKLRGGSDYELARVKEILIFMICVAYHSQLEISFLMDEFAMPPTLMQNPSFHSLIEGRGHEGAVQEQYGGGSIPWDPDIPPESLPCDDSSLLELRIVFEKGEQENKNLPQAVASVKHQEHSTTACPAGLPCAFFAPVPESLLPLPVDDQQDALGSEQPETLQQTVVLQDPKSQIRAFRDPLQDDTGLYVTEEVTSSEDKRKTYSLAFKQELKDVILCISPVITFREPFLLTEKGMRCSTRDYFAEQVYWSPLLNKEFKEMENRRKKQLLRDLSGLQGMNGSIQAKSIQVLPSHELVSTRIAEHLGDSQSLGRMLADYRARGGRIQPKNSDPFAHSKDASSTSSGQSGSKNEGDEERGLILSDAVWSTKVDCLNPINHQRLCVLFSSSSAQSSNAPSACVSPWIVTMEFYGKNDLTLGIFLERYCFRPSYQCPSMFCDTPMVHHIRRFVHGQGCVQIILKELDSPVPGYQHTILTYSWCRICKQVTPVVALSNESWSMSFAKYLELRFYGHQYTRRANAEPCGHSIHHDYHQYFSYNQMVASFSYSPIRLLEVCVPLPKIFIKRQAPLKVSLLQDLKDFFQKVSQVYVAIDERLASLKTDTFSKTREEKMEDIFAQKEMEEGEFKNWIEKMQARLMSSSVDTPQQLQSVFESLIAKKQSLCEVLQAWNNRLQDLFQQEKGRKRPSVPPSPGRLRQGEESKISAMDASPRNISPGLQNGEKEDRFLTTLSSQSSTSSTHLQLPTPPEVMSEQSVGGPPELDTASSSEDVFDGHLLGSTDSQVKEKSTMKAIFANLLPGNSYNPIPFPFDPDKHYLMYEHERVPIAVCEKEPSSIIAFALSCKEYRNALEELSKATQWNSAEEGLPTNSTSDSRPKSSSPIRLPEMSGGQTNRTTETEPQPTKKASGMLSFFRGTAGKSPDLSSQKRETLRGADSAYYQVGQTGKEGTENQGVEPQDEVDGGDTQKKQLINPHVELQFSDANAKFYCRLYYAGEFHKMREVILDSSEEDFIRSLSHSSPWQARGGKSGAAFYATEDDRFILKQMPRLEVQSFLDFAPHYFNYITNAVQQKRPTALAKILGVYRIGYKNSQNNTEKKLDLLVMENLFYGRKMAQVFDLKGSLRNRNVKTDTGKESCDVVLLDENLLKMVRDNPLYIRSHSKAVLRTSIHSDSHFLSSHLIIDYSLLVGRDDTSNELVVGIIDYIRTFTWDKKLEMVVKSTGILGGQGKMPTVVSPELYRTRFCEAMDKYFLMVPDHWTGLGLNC

By IC50 is commonly meant the concentration that inhibits the measured activity by half. `COc1c(Nc2cccnc2)nc(N2CCOCC2)nc1-c1cccc(C(=O)N(C)C)c1` [Compound 24] had an IC50 of 1 to 10 µM.
With `COc1c(Nc2cccnc2)nc(N2CCOCC2)nc1-c1cccc(N2CCC(O)CC2)c1` [Compound 55, 1-(3-(5-methoxy-2-morpholino-6-(pyridin-3-ylamino)pyrimidin-4-yl)phenyl)piperidin-4-ol], the IC50 is 1 to 10 µM.
With `Cn1ccc(-c2ccc3c(c2)c2nc(N4CCOCC4)nc(Nc4ccncc4)c2c(=O)n3C)n1` [Compound 71, 6-methyl-9-(1-methylpyrazol-3-yl)-2-morpholino-4-(4-pyridylamino)pyrimido[5,4-c]quinolin-one], the IC50 lay within 0.1 to 1 µM.
As for `COc1c(Nc2cccnc2)nc(N2CCOCC2)nc1-c1cccc(N2CCN(C)C(=O)C2)c1` [Compound 27, 4-(3-(5-methoxy-2-morpholino-6-(pyridin-3-ylamino)pyrimidin-4-yl)phenyl)-1-methylpiperazin-2-one], the figure is 1 to 10 µM; as for `Cn1ccc(-c2cccc(-c3nc(N4CCOCC4)nc(Nc4ccncc4)c3C(=O)N3CCC3)c2)n1` [Compound 68], 0.01 to 0.1 µM.
As for `COc1c(-c2cccc(-c3ccn(C)n3)c2)nc(N2CCOCC2)nc1N1CCN(C)C(=O)C1` [Compound 60, 4-(5-methoxy-6-(3-(1-methyl-1H-pyrazol-3-yl)phenyl)-2-morpholinopyrimidin-4-yl)-1-methylpiperazin-2-one], the figure is 1 to 10 µM; as for `COc1c(NCc2cccnc2)nc(-c2cccc(-c3ccn(C)n3)c2)nc1-c1ccncc1` [Compound 63, 5-methoxy-2-(3-(1-methyl-1H-pyrazol-3-yl)phenyl)-N-(pyridin-3-ylmethyl)-6-(pyridin-4-yl)pyrimidin-4-amine], 1 to 10 µM; as for `COc1c(-c2cccc(-c3ccn(C)n3)c2)nc(OCCc2ccccn2)nc1N1CCOCC1` [Compound 5, 4-(5-methoxy-6-(3-(1-methyl-H-pyrazol-3-yl)phenyl)-2-(2-(pyridin-2-yl)ethoxy)pyrimidin-4-yl)morpholine], 1 to 10 µM.
Consider `COc1c(Nc2ccncc2)nc(N2CCOCC2)nc1-c1cccc(-c2ncco2)c1` [Compound 54, 5-methoxy-2-morpholino-6-(3-(oxazol-2-yl)phenyl)-N-(pyridin-4-yl)pyrimidin-4-amine], for which the IC50 was 0.01 to 0.1 µM.
`COc1c(Nc2cccnc2)nc(N2CCOCC2)nc1-c1ccnc(-c2ccn(C)n2)c1` [Compound 25, 5-methoxy-6-(2-(1-methyl-1H-pyrazol-3-yl)pyridin-4-yl)-2-morpholino-N-(pyridin-3-yl)pyrimidin-4-amine] returned an IC50 of 0.1 to 1 µM.
`COc1c(OCCc2ccccn2)nc(-c2cccc(-c3ccn(C)n3)c2)nc1N1CCOCC1` [Compound 4] returned an IC50 of 1 to 10 µM.
In turn, `COc1c(Nc2ccncc2)nc(N2CCOCC2)nc1-c1ccnc(-c2ccn(C)n2)n1` [Compound 56, 5-methoxy-2′-(I-methyl-1H-pyrazol-3-yl)-2-morpholino-N-(pyridin-4-yl)-4,4′-bipyrimidin-4-amine] returned an IC50 of 0.1 to 1 µM.
As for `COc1c(Nc2cccnc2)nc(N2CCOCC2)nc1-c1cccc(-c2cccnn2)c1` [Compound 21], the figure is 1 to 10 µM; as for `COc1c(Nc2ccncc2)nc(N2CCOCC2)nc1-c1cccc(-n2ccc(C)n2)c1` [Compound 9], 0.01 to 0.1 µM.
As for `OCc1c(Nc2cccnc2)nc(N2CCOCC2)nc1-c1cccc(-n2cccn2)c1` [Compound 70, [2-morpholino-4-(3-pyrazol-1-ylphenyl)-6-(3-pyridylamino)pyrimidin-6-yl]methanol], the figure is 1 to 10 µM; as for `COc1c(NCc2cccnn2)nc(N2CCOCC2)nc1-c1cccc(-c2ccn(C)n2)c1` [Compound 31, 5-methoxy-6-(3-(1-methyl-1H-pyrazol-3-yl)phenyl)-2-morpholino-N-(pyridazin-3-ylmethyl)pyrimidin-4-amine], 1 to 10 µM.
The figure for `COc1c(Nc2cccnc2)nc(-c2ccncc2)nc1-c1cccc(-c2ccn(C)n2)c1` [Compound 34, 5-methoxy-6-(3-(1-methyl-H-pyrazol-3-yl)phenyl)-N-(pyridin-3-yl)-2-(pyridin-4-yl)pyrimidin-4-amine] is 0.01 to 0.1 µM; for `COc1c(Nc2ccncc2)nc(N2CCOCC2)nc1-c1cccc(N2CCC(O)CC2)c1` [Compound 48, 1-(3-(5-methoxy-2-morpholino-6-(pyridin-4-ylamino)pyrimidin-4-yl)phenyl)piperidin-4-ol] it is 0.1 to 1 µM; for `COc1c(Nc2ccncc2)nc(-c2ccncc2)nc1-c1cccc(-c2ccn(C)n2)c1` [Compound 53, 5-methoxy-6-(3-(1-methyl-1H-pyrazol-3-yl)phenyl)-N, 2-di(pyridin-4-yl)pyrimidin-4-amine] it is 0.01 to 0.1 µM.
As to `COc1c(-c2cccc(-n3cccn3)c2)nc(N2CCN(C)C(=O)C2)nc1N1CCOCC1` [Compound 37, 4-[5-methoxy-4-morpholino-6-(3-pyrazol-1-ylphenyl)pyrimidin-2-yl]-1-methyl-piperazin-2-one], the IC50 was 1 to 10 µM.
The figure for `COc1c(Nc2cccnc2)nc(N2CCOCC2)nc1-c1cccc(N2CCC(O)C2)c1` (centres unmarked) [Compound 26, 1-(3-(5-methoxy-2-morpholino-6-(pyridin-3-ylamino)pyrimidin-4-yl)phenyl)pyrrolidin-3-ol] is 1 to 10 µM.
As for `COc1c(Nc2cccnc2)nc(N2CCOCC2)nc1-c1cccc(N2CCCC2=O)c1` [Compound 29, 1-(3-(5-methoxy-2-morpholino-6-(pyridin-3-ylamino)pyrimidin-4-yl)phenyl)pyrrolidin-2-one], the figure is 1 to 10 µM.
`COc1c(Nc2cccnc2)nc(N2CCOCC2)nc1-c1cccc(C#N)c1` [Compound 23, 3-(5-methoxy-2-morpholino-6-(pyridin-3-ylamino)pyrimidin-4-yl)benzonitrile] yielded an IC50 of 1 to 10 µM.
With `Cn1ccc(-c2ccc3[nH]c(=O)c4c(Nc5ccncc5)nc(N5CCOCC5)nc4c3c2)n1` [Compound 72, 9-(1-methylpyrazol-3-yl)-2-morpholino-4-(4-pyridylamino)-6H-pyrimido[5,4-c]quinolin-one], the IC50 lay in the range of 0.01 to 0.1 µM.
The figure for `COc1c(Nc2ccncc2)nc(N2CCOC[C@H]2CO)nc1-c1cccc(-c2ccn(C)n2)c1` [Compound 43] is 1 to 10 µM.
In turn, `Clc1c(Nc2ccncc2)nc(N2CCOCC2)nc1-c1cccc(-n2cccn2)c1` [Compound 50, 6-(3-(1H-pyrazol-1-yl)phenyl)-5-chloro-2-morpholino-N-(pyridin-4-yl)pyrimidin-4-amine] registered an IC50 of 0.1 to 1 µM.
As for `COc1c(-c2cccc(-n3cccn3)c2)nc(N2CCOCC2)nc1-c1nc(-c2ccccc2)c[nH]1` [Compound 61, 4-(4-(3-(1H-pyrazol-1-yl)phenyl)-6-methoxy-6-(4-phenyl-1H-imidazol-2-yl)pyrimidin-2-yl)morpholine], the figure is 1 to 10 µM.
As for `COc1c(-c2cccc(-c3ccn(C)n3)c2)nc(N2CCOCC2)nc1-c1ccc2ncccc2c1` [Compound 58, 4-(5-methoxy-4-(3-(1-methyl-1H-pyrazol-3-yl)phenyl)-6-(quinolin-6-yl)pyrimidin-2-yl)morpholine], the figure is 0.1 to 1 µM; as for `CN(C)C(=O)c1c(Nc2ccncc2)nc(N2CCOCC2)nc1-c1cccc(C#N)c1` [Compound 67], 1 to 10 µM.
